Assay results as given in patent US20250040539A1, “COMPOSITION COMPRISING AN ANTIMICROBIAL AGENT AND A CARBOXAMIDE” (BASF SE, priority 2021, published 2025).

Legend:
Type in all cases: cell-based
[1] = system: bacterial mix: Escherichia coli DSM 1576, Alcaligenes faecalis DSM 13644, Pseudomonas aeruginosa ATCC 15442, Staphylococcus aureus ATCC 6538, Burkholderia …; experiment: Preservative activity of a basic composition (10% PG in water, pH 7) with 4,4'-dichloro-2-hydroxydiphenyl ether (diclosan) against bacterial contamination (Example 2.2); conditions: 10% PG + 0.015% diclosan, no amide (Comparative); day 7
Description: (§1) An aqueous composition of pH 7 comprising 10% by weight of propyleneglycol (PG) as organic solvent, 0.015% by weight of 4,4′-dichloro-2-hydroxydiphenyl ether (diclosan) as antimicrobial and 0.04 or 0.1% by weight of the amides listed in the below table was tested for its preserving activity against bacterial contamination (the weight percentages relate to the total weight of the composition). For this purpose, the samples were contaminated with a bacterial mix consisting of: • Escherichia coli DSM 1576 • Alcaligenes faecalis DSM 13644 • Pseudomonas aeruginosa ATCC 15442 • Staphylococcus aureus ATCC 6538 • Burkholderia cepacia DSM 7288 • Pseudomonas putida DSM 12735
The samples were inoculated with the bacterial mix at day 0 to obtain 10E+06 to 10E+07 CFU/ml inoculation in the test sample and stored at 25° C. for 7 days.
CFU was determined at day 7.
Any CFU value at day 7 (d7) obtained with a sample according to the invention containing diclosan and amide (10% PG+0.015% diclosan+Amide in water) lower than the respective value of the “comparative 3” example (10% by weight of propyleneglycol+0.015% by weight of 4,4′-dichloro-2-hydroxydiphenyl ether (diclosan) in water) indicates a better performance.

[2] = system: bacterial mix: Escherichia coli DSM 1576, Alcaligenes faecalis DSM 13644, Pseudomonas aeuginosa ATCC 15442, Staphylococcus aureus ATCC 6538, Burkholderia …; experiment: Preservative activity of a basic composition (10% PG in water, pH 7) with 2-phenoxyethanol against bacterial contamination (Example 2.1); conditions: 10% PG + 0.36% PE + 0.04% amide; for d7 [CFU/ml]: day 7; for d14 [CFU/ml]: day 14; for d21 [CFU/ml]: day 21
Description: as §1, with “0.36%” for “0.015%”, “2-phenoxyethanol (PE)” for “4,4′-dichloro-2-hydroxydiphenyl ether (diclosan)”, “0.04%” for “0.04 or 0.1%”, “amide” for “amides”, “aeuginosa” for “aeruginosa”
The samples were inoculated with the bacterial mix at day 0, 7 and 14 to obtain 10E+06 to 10E+07 CFU/ml inoculation in the test samples (compositions listed in the below table) consisting of 10% by weight of propylene glycol in water and stored at 25° C. for 21 days.
(§2) CFU was determined before re-inoculation at days 7 and 14, and on day 21.

[3] = system: fungal mix (including yeasts and molds): Aspergillus brasiliensis DSM 1988, Rhodotorula mucilaginosa DSM 13621, Yarrowia lipolytica DSM 8218; experiment: Preservative activity of a basic composition (10% PG in water, pH 7) with 2-phenoxyethanol against fungal contamination (Example 1.1); conditions: 10% PG + 0.36% PE + 0.04% Amide in water, pH 7, 25° C.; for d7 [CFU/ml]: fungal mix inoculated at day 0, 7 and 14 (1-3x10E+05 CFU/ml), day 7 before re-inoculation; for d14 [CFU/ml] / d21 [CFU/ml]: fungal mix inoculated at day 0, 7 and 14; for d14 [CFU/ml]: day 14 before re-inoculation; for d21 [CFU/ml]: day 21
Description: An aqueous composition of pH 7 comprising 10% by weight of propyleneglycol (PG) as organic solvent, 0.36% by weight of 2-phenoxyethanol (PE) as antimicrobial and 0.04% by weight of the amide listed in the below table was tested for its preserving activity against fungal contamination (the percentages are weight percent and relate to the total weight of the composition). For this purpose, the samples were contaminated with a fungal mix (including yeasts and molds) consisting of: • Aspergillus brasiliensis DS M 1988 • Rhodotorula mucilaginosa DSM 13621 • Yarrowia lipolytica DS M 8218
To control the efficacy, following control compositions were tested: • “Reference”, consisting of only 10% by weight of propylene glycol in water • “Comparative 1” containing 10% by weight of propylene glycol and amide in the given concentration, but no 2-phenoxyethanol • […] in the given concentration, but no amide.
The samples were inoculated with the fungal mix at day 0, 7 and 14 to obtain a cell density in the range of 1-3×10E+05 CFU/ml (CFU=colony forming units) in the test samples (compositions listed in the below table) and stored at 25° C. for 21 days.
as §2

[4] = system: fungal mix: Aspergillus brasiliensis DSM 1988, Rhodotorula mucilaginosa DSM 13621, Yarrowia lipolytica DSM 8218; experiment: Preservative activity in a manual dishwashing composition (MDW, pH 7.1) with 1.0% 2-phenoxyethanol against fungal mix (Example 1.2); conditions: MDW + 1.0% PE + 0.6% amide
Description: (§3) A manual dish wash detergent (MDW) of pH 7.1 containing the following components was used:
The samples were contaminated with a fungal mix consisting of: • Aspergillus brasiliensis DSM 1988 • Rhodotorula mucilaginosa DSM 13621 • Yarrowia lipolytica DSM 8218
The samples were inoculated with the fungal mix at day 0 and 7 to obtain 1-3×10E+05 CFU/ml inoculation in the test sample consisting of the above-defined dish wash detergent MDW and stored at 25° C. for 21 days. CFU was determined before re-inoculation at day 7, and on days 14 and 21.
Any CFU value at d7, d14 or d21 obtained with a MDW sample of the invention containing 2-phenoxyethanol and amide (MDW+1.0% PE+x % of Amide) lower than the respective value of the comparative example (MDW+1.0% by weight of 2-phenoxyethanol) indicates a better performance of the inventive combination of 2-phenoxyethanol with the amide.

[5] = system: bacterial mix: Escherichia coli DSM 1576, Alcaligenes faecalis DSM 13644, Pseudomonas aeruginosa ATCC 15442, Staphylococcus aureus ATCC 6538, Burkholderia …; experiment: Preservative activity in a manual dishwashing composition (MDW, pH 7.1) with 2.0% 2-phenoxyethanol against bacterial mix (Example 2.4); conditions: for d7 [CFU/ml]: day 7; for d14 [CFU/ml]: day 14; for d21 [CFU/ml]: day 21
Description: as §3
The samples were contaminated with a bacterial mix consisting of: • Escherichia coli DSM 1576 • Alcaligenes faecalis DSM 13644 • Pseudomonas aeruginosa ATCC 15442 • Staphylococcus aureus ATCC 6538 • Burkholderia cepacia DSM 7288 • Pseudomonas putida DSM 12735
The samples were inoculated with the bacterial mix at day 0 and 7 to obtain 10E+06 to 10E+07 CFU/ml inoculation in the test sample and stored at 25° C. for 21 days. CFU was determined before re-inoculation at day 7 and on days 14 and 21.
Any CFU value at day 7 (d7), day 14 (d14) or day 21 (d21) obtained with a sample according to the invention containing 2-phenoxyethanol and amide (MDW+2.0% PE+x % Amide) lower than the respective value of the “comparative 2” example (MOW+2.0% by weight of 2-phenoxyethanol) indicates a better performance.

[6] = MDW + 0.25% amide, no PE (Comparative 1c)
[7] = MDW + 5.0% amide, no PE (Comparative 1a)

Oc1cc(Cl)ccc1Oc1ccc(Cl)cc1 [diclosan, 4,4′-dichloro-2-hydroxydiphenyl ether, reference compound]
d7 [CFU/ml] [1]: >100,000 CFU/ml

CCCCCCN(CCCCCC)C(C)=O [Ethanoyl-N,N-dihexylamide]
d7 [CFU/ml] [2]: 75 CFU/ml
d14 [CFU/ml] [2]: 200 CFU/ml
d21 [CFU/ml] [2]: 1,450 CFU/ml
d7 [CFU/ml] [3]: 3,100 CFU/ml
d14 [CFU/ml] [3]: 2,750 CFU/ml
d21 [CFU/ml] [3]: 2,450 CFU/ml

CC(CC(=O)N(C)C)CC(C)(C)C (stereo not shown) [Isononanoyl-N,N-dimethylamide]
d7 [CFU/ml] [2]: 3,850 CFU/ml
d14 [CFU/ml] [2]: 13,500 CFU/ml
d21 [CFU/ml] [2]: 5,000 CFU/ml
d7 [CFU/ml] [3]: 3,600 CFU/ml
d14 [CFU/ml] [3]: 3,350 CFU/ml
d21 [CFU/ml] [3]: 15,000 CFU/ml

CCCCCCCCCCCC(=O)N(C)C [Dodecanoyl-N,N-dimethylamide]
d7 [CFU/ml] [2]: <10 CFU/ml
d14 [CFU/ml] [2]: <10 CFU/ml
d21 [CFU/ml] [2]: 450 CFU/ml
d7 [CFU/ml] [3]: 25 CFU/ml
d14 [CFU/ml] [3]: 170 CFU/ml
d21 [CFU/ml] [3]: 245 CFU/ml

CCCCCC(CCC)C(=O)N(C)C (stereo not shown) [2-Propyl-heptanoyl-N,N-dimethylamide]
d7 [CFU/ml] [2]: <10 CFU/ml
d14 [CFU/ml] [2]: 90 CFU/ml
d21 [CFU/ml] [2]: 2,700 CFU/ml

CCCCCC(CCC)C(=O)N(C)C (stereo not shown) [2-Propylheptanoyl-N,N-dimethylamide]
d7 [CFU/ml] [3]: 5,200 CFU/ml
d14 [CFU/ml] [3]: 3,250 CFU/ml
d21 [CFU/ml] [3]: 8,000 CFU/ml

CCCCN(CCCC)C(=O)CC [n-Propanoyl-N,N-dibutylamide]
d7 [CFU/ml] [2]: 39,500 CFU/ml
d14 [CFU/ml] [2]: 39,000 CFU/ml
d21 [CFU/ml] [2]: 23,500 CFU/ml
d7 [CFU/ml] [3]: 1,750 CFU/ml
d14 [CFU/ml] [3]: 3,750 CFU/ml
d21 [CFU/ml] [3]: 25,000 CFU/ml

CCCCCCCC(=O)N(C)C [n-Octanoyl-N,N-dimethylamide]
d7 [CFU/ml] [2]: 25 CFU/ml
d14 [CFU/ml] [2]: 2,100 CFU/ml
d21 [CFU/ml] [2]: 5,550 CFU/ml

CCCCC(CC)CNC(=O)/C=C\C(=O)O (stereo not shown) [Maleic acid N-2-ethylhexyl-amide]
d7 [CFU/ml] ([4]; day 7): 14,500 CFU/ml
d14 [CFU/ml] ([4]; day 14): 2,900 CFU/ml
d21 [CFU/ml] ([4]; day 21): 225 CFU/ml
d7 [CFU/ml] [2]: 545 CFU/ml
d14 [CFU/ml] [2]: 22,000 CFU/ml
d21 [CFU/ml] [2]: 20,500 CFU/ml
d7 [CFU/ml] [3]: 875 CFU/ml
d14 [CFU/ml] [3]: 8,500 CFU/ml
d21 [CFU/ml] [3]: 18,500 CFU/ml
d7 [CFU/ml] [5, 6]: >100,000 CFU/ml
d14 [CFU/ml] [5, 6]: >100,000 CFU/ml
d21 [CFU/ml] [5, 6]: >100,000 CFU/ml
d7 [CFU/ml] ([5]; MDW + 1.0% amide, no PE): >100,000 CFU/ml
d14 [CFU/ml] ([5]; MDW + 1.0% amide, no PE): >100,000 CFU/ml
d21 [CFU/ml] ([5]; MDW + 1.0% amide, no PE): >100,000 CFU/ml
d7 [CFU/ml] ([5]; MDW + 2.0% PE + 0.25% amide): <10 CFU/ml
d14 [CFU/ml] ([5]; MDW + 2.0% PE + 0.25% amide): <10 CFU/ml
d21 [CFU/ml] ([5]; MDW + 2.0% PE + 0.25% amide): <10 CFU/ml
d7 [CFU/ml] ([5]; MDW + 2.0% PE + 1.0% amide): <10 CFU/ml
d14 [CFU/ml] ([5]; MDW + 2.0% PE + 1.0% amide): <10 CFU/ml
d21 [CFU/ml] ([5]; MDW + 2.0% PE + 1.0% amide): <10 CFU/ml
d7 [CFU/ml] ([5]; MDW + 2.0% PE + 5.0% amide): <10 CFU/ml
d14 [CFU/ml] ([5]; MDW + 2.0% PE + 5.0% amide): <10 CFU/ml
d21 [CFU/ml] ([5]; MDW + 2.0% PE + 5.0% amide): <10 CFU/ml
d7 [CFU/ml] [5, 7]: >100,000 CFU/ml
d14 [CFU/ml] [5, 7]: >100,000 CFU/ml
d21 [CFU/ml] [5, 7]: >100,000 CFU/ml
